ChEMBL document CHEMBL4043121, “5-Bromoindirubin 3'-(O-oxiran-2-ylmethyl)oxime: A long-acting anticancer agent and a suicide inhibitor for epoxide hydrolase” (Bioorg Med Chem, 2017)
Calls of active or inactive are those of the source. The rule behind the calls is not given here.

Key:
HepG2 [1] = assay: Cytotoxicity against human HepG2 cells assessed as cell growth inhibition after 24 hrs by alamar blue assay; type: functional, cell-based; conditions: HepG2, 24 h
HepG2 [2] = assay: Cytotoxicity against human HepG2 cells assessed as cell viability at 3 uM up to 72 hrs by alamar blue assay; type: functional, cell-based
HepG2 [3] = assay: Cytotoxicity against human HepG2 cells assessed as cell viability at 3 uM after 72 hrs by alamar blue assay relative to control; type: functional; conditions: HepG2, 72 h, read-out: Activity
HepG2 [4] = assay: Cytotoxicity against human HepG2 cells assessed as cell viability at 3 uM after 24 hrs by alamar blue assay relative to control; type: functional; conditions: HepG2, 24 h, read-out: Activity
HepG2 [5] = assay: Cytotoxicity against human HepG2 cells assessed as cell viability at 1 uM after 24 hrs by alamar blue assay relative to control; type: functional; conditions: HepG2, 24 h, read-out: Activity
HepG2 [6] = assay: Cytotoxicity against human HepG2 cells assessed as cell viability at 1 uM after 72 hrs by alamar blue assay relative to control; type: functional; conditions: HepG2, 72 h, read-out: Activity
[7] = Drug metabolism in human HepG2 cell lysate assessed as epoxide hydrolase-mediated 1H,1'H-[2,3']Biindolylidene-3,2'-dione 3-[O-(2,3-dihydroxy-propyl)-oxime] level after 5 mins by HPLC analysis; type: ADME
epoxide hydrolase = assay: Substrate activity at epoxide hydrolase in human HepG2 cell lysate after 5 mins by Lineweaver-Burk plot analysis; type: ADME
[8] = Drug recovery in human HepG2 cell lysate measured up to 30 mins by HPLC analysis; type: ADME, cell-based; conditions: read-out: Drug recovery
[9] = Drug metabolism in human HepG2 cell lysate assessed as epoxide hydrolase-mediated oxirane hydrolysis at 9 uM measured up to 30 mins by HPLC analysis; type: ADME; conditions: 0.5 h
[10] = Drug metabolism in human HepG2 cell lysate assessed as epoxide hydrolase-mediated 5-bromoindirubin 3'-(O-2,3-dihydroxypropyl)oxime level after 5 mins by HPLC analysis; type: ADME
Homo sapiens [11] = species on record: Homo sapiens; assay: Effect on epoxide hydrolase activity in human HepG2 cell lysate measured up to 25 uM
HepG2 [12] = assay: Retention time of the compound in human HepG2 cell lysate by HPLC analysis; type: ADME, cell-based
[13] = Drug metabolism in human HepG2 cell lysate assessed as epoxide hydrolase-mediated oxirane hydrolysis at 20 uM measured up to 30 mins by HPLC analysis; type: ADME; conditions: 0.5 h
[14] = Drug metabolism in human HepG2 cell lysate assessed as epoxide hydrolase-mediated 5-bromoindirubin 3'-(O-2,3-dihydroxypropyl)oxime level by HPLC analysis; type: ADME; conditions: TDE = time-dependent effect
[15] = Drug recovery in human HepG2 cell lysate measured immediately after compound addition by HPLC analysis; type: ADME, cell-based; conditions: read-out: Drug recovery
[16] = Drug metabolism in human HepG2 cell lysate assessed as epoxide hydrolase-mediated 5-bromoindirubin 3'-(O-2,3-dihydroxypropyl)oxime formation after 30 mins by HPLC analysis; type: ADME; conditions: 0.5 h
Homo sapiens [17] = species on record: Homo sapiens; assay: Inhibition of epoxide hydrolase in human HepG2 cell lysate up to 25 uM by Kitz-Wilson method; conditions: TDE = time-dependent effect
[18] = Drug recovery in human HepG2 cell lysate after 10 to 30 mins by HPLC analysis; type: ADME, cell-based
[19] = Drug metabolism in human HepG2 cell lysate assessed as epoxide hydrolase-mediated 5-bromoindirubin 3'-(O-2,3-dihydroxypropyl)oxime level after 20 mins by HPLC analysis; type: ADME
[20] = Substrate activity at epoxide hydrolase in human HepG2 cell lysate assessed as 5-bromoindirubin 3'-(O-2,3-dihydroxypropyl)oxime formation at 2.5 to 6.25 uM after 5 mins by HPLC analysis; type: ADME
[21] = Drug recovery in human HepG2 cell lysate at 5 mins by HPLC analysis; type: ADME, cell-based; conditions: read-out: Drug recovery
[22] = Drug metabolism in human HepG2 cell lysate assessed as epoxide hydrolase-mediated 5-bromoindirubin 3'-(O-2,3-dihydroxypropyl)oxime formation after 30 mins by UPLC/MS analysis; type: ADME; conditions: 0.5 h
[23] = Drug recovery in human HepG2 cell lysate by HPLC analysis; type: ADME, cell-based; conditions: TDE = time-dependent effect
Homo sapiens [24] = species on record: Homo sapiens; assay: Inhibition of epoxide hydrolase in human HepG2 cell lysate up to 25 uM measured after 5 to 10 mins by Kitz-Wilson method
[25] = Substrate activity at epoxide hydrolase in human HepG2 cell lysate assessed as 5-bromoindirubin 3'-(O-2,3-dihydroxypropyl)oxime formation at >10 uM after 5 mins by HPLC analysis; type: ADME

SMILES	IC50 (HepG2 [1]) [µM]	other results
COc1ccc2c(c1)/C(=C1/Nc3ccccc3C1=O)C(=O)N2	> 100	
O=C1Nc2ccc(F)cc2/C1=C1/Nc2ccccc2C1=O	> 100	
O=C1Nc2c(Br)cc(Br)cc2/C1=C1/Nc2ccccc2/C1=N\OCC1CO1 (stereo unspecified)	8.8	Activity (HepG2 [2]): inactive
O=C1Nc2ccc(Cl)cc2/C1=C1/Nc2ccccc2/C1=N\OCC1CO1 (stereo unspecified)	1.3	
O=C1Nc2ccccc2/C1=C1/Nc2ccccc2/C1=N\OCCC1CO1 (stereo unspecified)	7.8	
O=C1Nc2ccc(Br)cc2/C1=C1/Nc2cc(Br)ccc2C1=O	> 100	
O=C1Nc2ccc(I)cc2/C1=C1/Nc2ccccc2/C1=N\O	57	
O=C1Nc2cc(Br)c(Br)cc2/C1=C1/Nc2ccccc2/C1=N\O	4.4	
O=C1Nc2c(Br)cccc2/C1=C1/Nc2cc(Br)ccc2/C1=N\O	17	
O=C1Nc2cc(Br)c(Br)cc2/C1=C1/Nc2ccccc2/C1=N\OCC1CO1 (stereo unspecified)	1.9	viability at 3 µM (HepG2 [3]): 6.5%; viability at 3 µM (HepG2 [4]): 48%; viability at 1 µM (HepG2 [5]): 78%; viability at 1 µM (HepG2 [6]): 96%
COc1ccc2c(c1)NC(=O)/C2=C1\Nc2ccccc2\C1=N/OCC1CO1 (stereo unspecified)	61	
COc1cccc2c1NC(=O)/C2=C1\Nc2ccccc2C1=O	> 100	
O=C1Nc2ccc(Br)cc2/C1=C1/Nc2ccc(Br)cc2C1=O	> 100	
O=C1Nc2ccccc2/C1=C1/Nc2cc(Br)ccc2/C1=N\OCC1CO1 (stereo unspecified)	4.5	
O=C1Nc2ccc(Cl)cc2/C1=C1/Nc2ccccc2/C1=N\O	13	
O=C1Nc2ccccc2/C1=C1/Nc2cc(Br)ccc2C1=O	> 100	
O=C1Nc2cc(Br)ccc2/C1=C1/Nc2ccc(Br)cc2/C1=N\O	3.7	
O=C1Nc2ccc(I)cc2/C1=C1/Nc2ccccc2/C1=N\OCC1CO1 (stereo unspecified)	3	
COc1cccc2c1NC(=O)/C2=C1\Nc2ccccc2\C1=N/O	5.9	
O=C1Nc2c(Br)cccc2/C1=C1/Nc2ccc(Br)cc2/C1=N\OCC1CO1 (stereo unspecified)	10	Activity (HepG2 [2]): inactive

SMILES	IC50 (HepG2 [1]) [µM]	other results
COc1cccc2c1NC(=O)/C2=C1\Nc2ccccc2\C1=N/OCC1CO1 (stereo unspecified)	10	
O=C1Nc2cc(Br)ccc2/C1=C1/Nc2ccc(Br)cc2/C1=N\OCC1CO1 (stereo unspecified)	> 100	
O=C1Nc2ccc(Br)cc2/C1=C1/Nc2ccccc2C1=O	> 100	
O=C1Nc2cc(Br)ccc2/C1=C1/Nc2ccccc2C1=O	> 100	
O=C1Nc2ccccc2/C1=C1/Nc2ccc(Br)cc2/C1=N\O	11	
O=C1Nc2ccccc2/C1=C1/Nc2ccccc2/C1=N\OCC1CO1 (stereo unspecified)		Drug metabolism [7]: 7.34 nmol; Km at 5 min (epoxide hydrolase): 1.51 µM; remaining at 0.5 h [8]: 96 to 103%; viability at 3 µM (HepG2 [3]): 1.8%; Drug metabolism [9]: 1.8 nmol; viability at 3 µM (HepG2 [4]): 33%; viability at 1 µM (HepG2 [5]): 66%; Drug metabolism [10]: 2.24 nmol; viability at 1 µM (HepG2 [6]): 85%
COc1ccc2c(c1)NC(=O)/C2=C1\Nc2ccccc2C1=O	> 100	
O=C1Nc2c(Br)cccc2/C1=C1/Nc2ccccc2C1=O	> 100	
O=C1Nc2ccc(Br)cc2/C1=C1/Nc2cc(Br)ccc2/C1=N\O	> 100	
O=C1Nc2cc(Br)ccc2/C1=C1/Nc2cc(Br)ccc2C1=O	> 100	
O=C1Nc2cc(Br)c(Br)cc2/C1=C1/Nc2ccccc2C1=O	> 100	
O=C1Nc2c(Br)cccc2/C1=C1/Nc2cc(Br)ccc2/C1=N\OCC1CO1 (stereo unspecified)	> 100	
O=C1Nc2ccc(Br)cc2/C1=C1/Nc2ccc(Br)cc2/C1=N\O	7	
O=C1Nc2cc(Br)ccc2/C1=C1/Nc2cc(Br)ccc2/C1=N\OCC1CO1 (stereo unspecified)	> 100	
O=C1Nc2cc(Br)ccc2/C1=C1/Nc2ccccc2/C1=N\OCC1CO1 (stereo unspecified)	> 100	
O=C1Nc2cc(Br)ccc2/C1=C1/Nc2cc(Br)ccc2/C1=N\O	16	
O=C1Nc2ccccc2/C1=C1/Nc2ccc(Br)cc2/C1=N\OCC1CO1 (stereo unspecified)	3.3	
O=C1Nc2ccc(Br)cc2/C1=C1/Nc2ccccc2/C1=N\OCC1CO1 (stereo unspecified)	0.62	Activity (Homo sapiens [11]): inactive; Km at 5 min (epoxide hydrolase): 3.34 µM; Retention_time (HepG2 [12]): 5.9 min; Drug metabolism [13]: 4 nmol; Drug metabolism [14]: Tde; remaining at 0 min [15]: 95%; Drug metabolism [16]: Metabolite_Detected; inhibition (Homo sapiens [17]): Tde; Drug recovery [18]: 80%; Drug metabolism [19]: <= 4 nmol; Activity [20]: Active; remaining at 5 min [21]: 88%; viability at 3 µM (HepG2 [3]): 4.8%; viability at 3 µM (HepG2 [4]): 30%; Drug metabolism [22]: Metabolite_Detected; viability at 1 µM (HepG2 [5]): 39%; Drug recovery [23]: Tde; viability at 1 µM (HepG2 [6]): 10%
O=C1Nc2ccc(Br)cc2/C1=C1/Nc2ccc(Br)cc2/C1=N\OCC1CO1 (stereo unspecified)	2.5	
COc1ccc2c(c1)NC(=O)/C2=C1\Nc2ccccc2\C1=N/O	21	

SMILES	IC50 (HepG2 [1]) [µM]	other results
O=C1Nc2ccc(F)cc2/C1=C1/Nc2ccccc2/C1=N\O	10	
O=C1Nc2c(Br)cccc2/C1=C1/Nc2cc(Br)ccc2C1=O	> 100	
COc1ccc2c(c1)/C(=C1/Nc3ccccc3/C1=N\O)C(=O)N2	6.2	
O=C1Nc2ccc(Br)cc2/C1=C1/Nc2cc(Br)ccc2/C1=N\OCC1CO1 (stereo unspecified)	> 100	
O=C1Nc2c(Br)cccc2/C1=C1/Nc2ccccc2/C1=N\OCC1CO1 (stereo unspecified)	37	Activity (HepG2 [2]): inactive
COc1ccc2c(c1)/C(=C1/Nc3ccccc3/C1=N\OCC1CO1)C(=O)N2 (stereo unspecified)	1.6	
O=C1Nc2ccc(I)cc2/C1=C1/Nc2ccccc2C1=O	> 100	
O=C1Nc2ccccc2/C1=C1/Nc2cc(Br)ccc2/C1=N\O	14	
O=C1Nc2ccccc2/C1=C1/Nc2ccc(Br)cc2C1=O	> 100	
O=C1Nc2c(Br)cc(Br)cc2/C1=C1/Nc2ccccc2/C1=N\O	6.6	
O=C1Nc2c(Br)cccc2/C1=C1/Nc2ccc(Br)cc2C1=O	> 100	
O=C1Nc2ccc(Cl)cc2/C1=C1/Nc2ccccc2C1=O	> 100	
O=C1Nc2ccccc2/C1=C1/Nc2ccccc2C1=O [INDIRUBIN]	> 100	
O=C1Nc2ccc(Br)cc2/C1=C1/Nc2ccccc2/C1=N\O [INDIRUBIN 2]	6.9	
O=C1Nc2cc(Br)ccc2/C1=C1/Nc2ccc(Br)cc2C1=O	> 100	
O=C1Nc2c(Br)cccc2/C1=C1/Nc2ccccc2/C1=N\O	4.8	
O=C1Nc2ccc(F)cc2/C1=C1/Nc2ccccc2/C1=N\OCC1CO1 (stereo unspecified)	1.7	
O=C1Nc2ccccc2/C1=C1/Nc2ccccc2/C1=N\OCCCC1CO1 (stereo unspecified)	16	
O=C1Nc2c(Br)cccc2/C1=C1/Nc2ccc(Br)cc2/C1=N\O	4.9	
O=C1Nc2ccc(Br)cc2/C1=C1/Nc2ccccc2/C1=N\OCC(O)CO (stereo unspecified)	9.8	Retention_time (HepG2 [12]): 3.5 min; inhibition (Homo sapiens [24]): inactive; Activity [25]: Not Active
